Laboratory results from ChEMBL document CHEMBL5126611, “Design, Synthesis, and Biological Evaluations of Pyridyl 4,5,6,7-Tetrahydro-4,7-Methanobenzo[d]isoxazoles as Potent and Selective Inhibitors of 11β-Hydroxylase” (J Med Chem, 2022).
Converted amounts (≈) assume the structure as drawn.

Columns and labels:
[1] = Reduction of cortisol elevation in Sprague-Dawley rat at 25 mg/kg, po measured after 4 hrs by liquid chromatography-tandem mass spectrometry analysis (reference value: 376+/- 22 ng/L); assay type: functional
[2] = Selectivity ratio of IC50 for inhibition of rat CYP11B2 to IC50 for inhibition of rat CYP11B1; assay type: ADME
[3] = Clearance in Sprague-Dawley rat at 5 mg/kg, iv measured up to 24 hrs by LC-MS analysis; assay type: ADME, organism-based; conditions: in vivo
[4] = Terminal half life in Sprague-Dawley rat at 25 mg/kg, po measured up to 24 hrs by LC-MS analysis; assay type: ADME, organism-based; conditions: in vivo, read-out: beta t1/2 (converted)
[5] = Cmax in Sprague-Dawley rat at 25 mg/kg, po measured up to 24 hrs by LC-MS analysis; assay type: ADME, organism-based; set-up: dose 25 mg/kg, time < 24 hrs, route po; conditions: in vivo
[6] = Cmax in Sprague-Dawley rat at 5 mg/kg, iv measured up to 24 hrs by LC-MS analysis; assay type: ADME, organism-based; set-up: dose 5 mg/kg, time < 24 hrs, route iv; conditions: in vivo
[7] = Aqueous solubility of compound; assay type: physicochemical; conditions: buffer
Cytochrome P450 2C9 = Cytochrome P450 2C9 (Homo sapiens, UniProt P11712); experiment: Inhibition of human hepatic recombinant CYP2C9 using cocktail of substrate by LC-MS/MS analysis; assay type: ADME
Chain of Cytochrome P450 2C9 (P11712 whole entry): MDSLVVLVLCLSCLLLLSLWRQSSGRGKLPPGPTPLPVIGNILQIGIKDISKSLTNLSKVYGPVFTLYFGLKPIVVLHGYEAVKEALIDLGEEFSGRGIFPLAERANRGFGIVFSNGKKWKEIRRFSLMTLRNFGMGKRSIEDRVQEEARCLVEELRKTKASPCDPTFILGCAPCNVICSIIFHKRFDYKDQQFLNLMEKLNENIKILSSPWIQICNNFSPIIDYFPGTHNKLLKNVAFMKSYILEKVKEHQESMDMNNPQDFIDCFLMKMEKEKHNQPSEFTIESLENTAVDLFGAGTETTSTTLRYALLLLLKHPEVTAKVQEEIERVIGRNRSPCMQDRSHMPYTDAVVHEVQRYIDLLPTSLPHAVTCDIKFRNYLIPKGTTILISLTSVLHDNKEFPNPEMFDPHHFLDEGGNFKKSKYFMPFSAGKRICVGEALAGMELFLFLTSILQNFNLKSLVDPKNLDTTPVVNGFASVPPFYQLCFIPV

[8] = Cytotoxicity against Chinese hamster V79 cells assessed as reduction in cell viability; assay type: toxicity, cell-based, Cricetulus griseus; conditions: read-out: LC50 (the source's name)
[9] = biological target: T1, Cytochrome P450 11B1, mitochondrial (Rattus norvegicus, UniProt P15393); experiment: Inhibition of rat CYP11B1; assay type: ADME
T1 sequence (P15393 whole entry): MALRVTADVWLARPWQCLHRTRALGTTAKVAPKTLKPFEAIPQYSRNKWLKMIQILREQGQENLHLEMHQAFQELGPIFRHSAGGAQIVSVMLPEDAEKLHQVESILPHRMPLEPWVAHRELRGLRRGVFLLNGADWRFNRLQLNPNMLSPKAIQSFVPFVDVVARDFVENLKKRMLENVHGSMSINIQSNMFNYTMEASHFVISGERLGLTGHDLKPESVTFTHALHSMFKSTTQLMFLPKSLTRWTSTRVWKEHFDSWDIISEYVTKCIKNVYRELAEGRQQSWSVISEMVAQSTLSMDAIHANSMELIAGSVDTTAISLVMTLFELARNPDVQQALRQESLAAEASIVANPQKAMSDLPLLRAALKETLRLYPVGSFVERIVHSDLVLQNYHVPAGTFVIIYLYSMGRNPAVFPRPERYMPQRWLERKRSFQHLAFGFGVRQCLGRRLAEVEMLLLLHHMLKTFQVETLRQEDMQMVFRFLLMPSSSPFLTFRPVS

[10] = Bioavailability in Sprague-Dawley rat at 5 mg/kg, iv measured up to 24 hrs by LC-MS analysis; assay type: ADME, organism-based; conditions: in vivo
[11] = Cytotoxicity against human HepG2 cells assessed as reduction in cell viability; assay type: toxicity, cell-based; conditions: read-out: LC50 (the source's name)
Cytochrome P450 3A4 = Cytochrome P450 3A4 (Homo sapiens, UniProt P08684); experiment: Inhibition of human hepatic recombinant CYP3A using cocktail of substrate by LC-MS/MS analysis; assay type: ADME
Chain of Cytochrome P450 3A4 (P08684 whole entry): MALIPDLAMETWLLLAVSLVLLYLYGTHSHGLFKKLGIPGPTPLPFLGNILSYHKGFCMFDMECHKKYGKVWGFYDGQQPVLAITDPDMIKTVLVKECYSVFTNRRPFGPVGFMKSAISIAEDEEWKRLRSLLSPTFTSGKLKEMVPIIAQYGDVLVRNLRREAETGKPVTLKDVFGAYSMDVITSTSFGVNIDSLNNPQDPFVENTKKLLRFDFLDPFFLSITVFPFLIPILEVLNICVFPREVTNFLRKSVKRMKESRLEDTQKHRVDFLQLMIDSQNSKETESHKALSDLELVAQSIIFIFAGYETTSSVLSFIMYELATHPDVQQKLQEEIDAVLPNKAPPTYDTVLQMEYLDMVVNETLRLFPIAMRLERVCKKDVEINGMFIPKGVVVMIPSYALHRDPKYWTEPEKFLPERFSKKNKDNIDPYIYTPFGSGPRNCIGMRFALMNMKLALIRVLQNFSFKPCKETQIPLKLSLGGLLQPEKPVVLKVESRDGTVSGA

[12] = biological target: T2, Cytochrome P450 11B1, mitochondrial (Homo sapiens, UniProt P15538); experiment: Inhibition of human CYP11B1 expressed in Chinese hamster V79 MZh cells using [14C]-deoxycorticosteron as substrate measured after 6 hrs by phosphoimager analysis; assay type: ADME, cell-based
T2 sequence (P15538 whole entry): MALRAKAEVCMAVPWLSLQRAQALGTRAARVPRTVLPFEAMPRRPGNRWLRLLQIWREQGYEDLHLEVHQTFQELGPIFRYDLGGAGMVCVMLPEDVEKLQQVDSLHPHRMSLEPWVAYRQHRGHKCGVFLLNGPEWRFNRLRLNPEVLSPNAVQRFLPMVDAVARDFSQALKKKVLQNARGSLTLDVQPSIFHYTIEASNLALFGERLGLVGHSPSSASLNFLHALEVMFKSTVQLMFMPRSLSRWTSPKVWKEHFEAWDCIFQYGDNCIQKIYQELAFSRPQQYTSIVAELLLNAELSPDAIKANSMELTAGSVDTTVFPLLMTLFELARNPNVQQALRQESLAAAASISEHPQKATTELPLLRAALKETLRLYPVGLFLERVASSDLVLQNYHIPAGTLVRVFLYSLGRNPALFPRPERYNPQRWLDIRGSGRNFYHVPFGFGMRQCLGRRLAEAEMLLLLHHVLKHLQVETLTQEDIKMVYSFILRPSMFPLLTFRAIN

[13] = Selectivity ratio of IC50 for inhibition of human CYP11B2 to IC50 for inhibition of human CYP11B1; assay type: ADME
[14] = AUC (0 to infinity) in Sprague-Dawley rat at 5 mg/kg, iv measured up to 24 hrs by LC-MS analysis; assay type: ADME, organism-based; set-up: time < 24 hrs, dose 5 mg/kg, route iv; conditions: in vivo
Cytochrome P450 2D6 = Cytochrome P450 2D6 (Homo sapiens, UniProt P10635); experiment: Inhibition of human hepatic recombinant CYP2D6 using cocktail of substrate by LC-MS/MS analysis; assay type: ADME
Chain of Cytochrome P450 2D6 (P10635 whole entry): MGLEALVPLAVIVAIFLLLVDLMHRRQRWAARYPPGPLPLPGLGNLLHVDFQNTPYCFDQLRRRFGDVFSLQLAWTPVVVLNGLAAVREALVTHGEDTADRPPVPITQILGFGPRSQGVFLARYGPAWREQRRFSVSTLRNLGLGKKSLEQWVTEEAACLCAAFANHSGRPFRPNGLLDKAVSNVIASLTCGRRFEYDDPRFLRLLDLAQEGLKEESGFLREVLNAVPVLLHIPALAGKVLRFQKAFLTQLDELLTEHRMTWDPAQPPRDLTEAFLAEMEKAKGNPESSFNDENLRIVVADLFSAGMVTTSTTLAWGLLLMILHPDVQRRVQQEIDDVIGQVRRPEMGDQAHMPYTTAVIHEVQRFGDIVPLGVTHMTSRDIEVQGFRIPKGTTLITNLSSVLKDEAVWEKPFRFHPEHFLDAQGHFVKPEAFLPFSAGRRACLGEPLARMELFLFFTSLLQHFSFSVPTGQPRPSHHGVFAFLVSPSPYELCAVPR

[15] = Terminal half life in Sprague-Dawley rat at 5 mg/kg, iv measured up to 24 hrs by LC-MS analysis; assay type: ADME, organism-based; conditions: in vivo, read-out: beta t1/2 (converted)
Cytochrome P450 1A2 = biological target: T3, Cytochrome P450 1A2 (Homo sapiens, UniProt P05177); experiment: Inhibition of human hepatic recombinant CYP1A2 using cocktail of substrate by LC-MS/MS analysis; assay type: ADME
T3 sequence (P05177 whole entry): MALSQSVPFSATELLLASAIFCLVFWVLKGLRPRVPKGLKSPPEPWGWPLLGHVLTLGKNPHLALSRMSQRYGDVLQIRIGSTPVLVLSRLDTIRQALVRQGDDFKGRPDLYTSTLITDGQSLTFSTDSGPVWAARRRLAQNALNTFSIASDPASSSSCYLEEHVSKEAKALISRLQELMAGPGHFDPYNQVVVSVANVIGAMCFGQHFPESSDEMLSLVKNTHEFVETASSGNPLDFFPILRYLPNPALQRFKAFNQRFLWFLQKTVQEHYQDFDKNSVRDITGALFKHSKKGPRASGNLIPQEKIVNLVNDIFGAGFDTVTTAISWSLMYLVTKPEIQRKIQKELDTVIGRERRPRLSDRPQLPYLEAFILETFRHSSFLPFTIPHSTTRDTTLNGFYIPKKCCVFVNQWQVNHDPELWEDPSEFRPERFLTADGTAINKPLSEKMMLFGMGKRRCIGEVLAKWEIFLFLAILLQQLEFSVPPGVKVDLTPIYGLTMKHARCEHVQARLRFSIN

[16] = Tmax in Sprague-Dawley rat at 5 mg/kg, iv measured up to 24 hrs by LC-MS analysis; assay type: ADME, organism-based; conditions: in vivo
Cytochrome P450 2C19 = Cytochrome P450 2C19 (Homo sapiens, UniProt P33261); experiment: Inhibition of human hepatic recombinant CYP2C19 using cocktail of substrate by LC-MS/MS analysis; assay type: ADME
Chain of Cytochrome P450 2C19 (P33261 whole entry): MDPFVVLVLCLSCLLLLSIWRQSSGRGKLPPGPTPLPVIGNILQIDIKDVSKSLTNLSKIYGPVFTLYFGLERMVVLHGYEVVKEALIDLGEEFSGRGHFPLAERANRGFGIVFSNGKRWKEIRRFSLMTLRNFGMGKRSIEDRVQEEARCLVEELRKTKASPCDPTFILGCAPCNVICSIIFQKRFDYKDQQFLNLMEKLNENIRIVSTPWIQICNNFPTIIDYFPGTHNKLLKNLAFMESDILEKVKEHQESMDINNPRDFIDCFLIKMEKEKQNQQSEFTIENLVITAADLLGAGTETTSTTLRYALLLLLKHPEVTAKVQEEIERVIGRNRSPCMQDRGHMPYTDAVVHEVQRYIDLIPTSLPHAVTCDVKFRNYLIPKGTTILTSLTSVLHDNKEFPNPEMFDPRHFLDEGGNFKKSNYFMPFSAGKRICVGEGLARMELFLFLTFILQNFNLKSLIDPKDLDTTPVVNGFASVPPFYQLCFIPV

O=C(Nc1ccc2[nH]ncc2c1)[C@]12ON=C(c3cccnc3)[C@H]1[C@@H]1CC[C@H]2C1
Activity [1]: 28 ng/L | Ratio IC50 [2]: 81 | CL [3]: 0.287 mL/min/kg | half-life [4]: 4.6 h | Cmax [5]: 7990 ng/mL | Cmax [6]: 12700 ng/mL | solubility [7]: 196 µM (≈ 73.2 µg/mL) | IC50 (Cytochrome P450 2C9): > 10 µM | CC50 [8]: > 50 µM | IC50 [9]: 0.025 µM | bioavailability [10]: 21.4% | CC50 [11]: > 50 µM | IC50 (Cytochrome P450 3A4): > 10 µM | IC50 [12]: 0.009 µM | Ratio IC50 [13]: 125 | AUC [14]: 50928.7 ng·h/mL | IC50 (Cytochrome P450 2D6): > 10 µM | half-life [15]: 4.5 h | IC50 (Cytochrome P450 1A2): > 10 µM | Tmax [16]: 0 h | IC50 (Cytochrome P450 2C19): > 10 µM
